Structures can show the parent of a compound that is named as a salt. Where two headings read alike, the source gives them in different places.
Tests used:
[1] = system: Lgr5+ cells; assay: Lgr5+ Assay (Lgr5+ cell assay in vitro); format: cell-based
[2] = Perilymph Conc. listed for agents (Tables 14-25)
[3] = biological target: GSK-3 alpha (Homo sapiens, UniProt P49840); details: cited from earlier work
[4] = system: HDAC; details: Mechanism HDAC Inhib 1, 2, 3, 8; cited from earlier work
[5] = biological target: T1, EZH2 (Homo sapiens, UniProt Q15910); details: Table 19, EZH2; read-out: pKi or IC50 (converted); cited from earlier work
[6] = biological target: T1, EZH2; details: Table 19; cited from earlier work
[7] = biological target: T2, LSD1 (Homo sapiens, UniProt O60341); details: Table 18, LSD1; read-out: pKi or IC50 (converted); cited from earlier work
[8] = biological target: T2, LSD1; details: Table 18, cited from earlier work
[9] = biological target: T3, MAO B (Homo sapiens, UniProt P27338); details: Table 18, MAO B (second value or marked B); read-out: Select MAOs A and B; cited from earlier work
T3 sequence (P27338 1-520): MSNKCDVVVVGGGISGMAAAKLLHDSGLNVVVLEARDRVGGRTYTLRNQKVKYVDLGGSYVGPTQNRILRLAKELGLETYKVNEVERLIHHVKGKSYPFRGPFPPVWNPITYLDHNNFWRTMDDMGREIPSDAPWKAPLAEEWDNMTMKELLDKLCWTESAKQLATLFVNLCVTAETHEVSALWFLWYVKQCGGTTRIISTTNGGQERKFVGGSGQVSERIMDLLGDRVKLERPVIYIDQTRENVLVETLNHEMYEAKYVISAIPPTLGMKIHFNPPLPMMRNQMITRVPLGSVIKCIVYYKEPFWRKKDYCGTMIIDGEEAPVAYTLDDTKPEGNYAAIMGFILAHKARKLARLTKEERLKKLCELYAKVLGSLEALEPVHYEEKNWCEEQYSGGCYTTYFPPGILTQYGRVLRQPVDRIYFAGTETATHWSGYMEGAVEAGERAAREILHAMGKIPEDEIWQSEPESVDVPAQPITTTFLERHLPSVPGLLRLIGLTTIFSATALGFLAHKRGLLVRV

[10] = system: TAZ; details: Table 22; cited from earlier work
[11] = biological target: T4, MAO A (Homo sapiens, UniProt P21397); details: Table 18, MAO A (first value or marked A); read-out: Select MAOs A and B; cited from earlier work
T4 sequence (P21397 1-527): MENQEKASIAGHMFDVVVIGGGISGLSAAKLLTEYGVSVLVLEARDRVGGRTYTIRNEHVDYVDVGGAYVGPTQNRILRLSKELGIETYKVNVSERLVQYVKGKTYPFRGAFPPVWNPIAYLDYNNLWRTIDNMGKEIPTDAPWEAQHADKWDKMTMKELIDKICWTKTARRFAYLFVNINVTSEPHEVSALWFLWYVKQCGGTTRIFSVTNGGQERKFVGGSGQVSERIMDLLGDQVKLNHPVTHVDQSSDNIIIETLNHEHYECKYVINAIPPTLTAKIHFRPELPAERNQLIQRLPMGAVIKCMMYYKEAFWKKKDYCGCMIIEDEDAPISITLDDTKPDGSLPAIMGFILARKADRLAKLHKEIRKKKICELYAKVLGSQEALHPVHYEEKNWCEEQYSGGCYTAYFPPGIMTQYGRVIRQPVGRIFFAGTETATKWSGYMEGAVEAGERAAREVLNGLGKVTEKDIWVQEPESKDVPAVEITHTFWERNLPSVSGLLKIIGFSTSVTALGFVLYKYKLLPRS

[12] = Human In Vivo Conc listed for agents
[13] = system: KDM; details: Table 21; cited from earlier work
[14] = system: KDM; details: cited from earlier work
[15] = cited from earlier work
[16] = biological target: T5, DOT1L (Homo sapiens, UniProt Q8TEK3); details: Table 20; cited from earlier work
[17] = biological target: EZH-1 (Homo sapiens, UniProt Q92800); details: Table 19; read-out: Select vs EZH-1; cited from earlier work
[18] = biological target: T5, DOT1L; details: Table 20; read-out: pKi or IC50 (converted); cited from earlier work
[19] = Table 14, listed concentration, no test described
[20] = HDAC inhibitor table, upper end of the wrapped range 100 uM-4 mM
[21] = HDAC inhibitor table, upper end of the wrapped range 100 uM-4 mM, no test described
[22] = Table 22, listed concentration, no test described
[23] = Table 20, listed concentration, no test described
[24] = Table 21, KDM 4, read-out: Select KDM 4

T5 sequence (Q8TEK3 whole entry, species assumed): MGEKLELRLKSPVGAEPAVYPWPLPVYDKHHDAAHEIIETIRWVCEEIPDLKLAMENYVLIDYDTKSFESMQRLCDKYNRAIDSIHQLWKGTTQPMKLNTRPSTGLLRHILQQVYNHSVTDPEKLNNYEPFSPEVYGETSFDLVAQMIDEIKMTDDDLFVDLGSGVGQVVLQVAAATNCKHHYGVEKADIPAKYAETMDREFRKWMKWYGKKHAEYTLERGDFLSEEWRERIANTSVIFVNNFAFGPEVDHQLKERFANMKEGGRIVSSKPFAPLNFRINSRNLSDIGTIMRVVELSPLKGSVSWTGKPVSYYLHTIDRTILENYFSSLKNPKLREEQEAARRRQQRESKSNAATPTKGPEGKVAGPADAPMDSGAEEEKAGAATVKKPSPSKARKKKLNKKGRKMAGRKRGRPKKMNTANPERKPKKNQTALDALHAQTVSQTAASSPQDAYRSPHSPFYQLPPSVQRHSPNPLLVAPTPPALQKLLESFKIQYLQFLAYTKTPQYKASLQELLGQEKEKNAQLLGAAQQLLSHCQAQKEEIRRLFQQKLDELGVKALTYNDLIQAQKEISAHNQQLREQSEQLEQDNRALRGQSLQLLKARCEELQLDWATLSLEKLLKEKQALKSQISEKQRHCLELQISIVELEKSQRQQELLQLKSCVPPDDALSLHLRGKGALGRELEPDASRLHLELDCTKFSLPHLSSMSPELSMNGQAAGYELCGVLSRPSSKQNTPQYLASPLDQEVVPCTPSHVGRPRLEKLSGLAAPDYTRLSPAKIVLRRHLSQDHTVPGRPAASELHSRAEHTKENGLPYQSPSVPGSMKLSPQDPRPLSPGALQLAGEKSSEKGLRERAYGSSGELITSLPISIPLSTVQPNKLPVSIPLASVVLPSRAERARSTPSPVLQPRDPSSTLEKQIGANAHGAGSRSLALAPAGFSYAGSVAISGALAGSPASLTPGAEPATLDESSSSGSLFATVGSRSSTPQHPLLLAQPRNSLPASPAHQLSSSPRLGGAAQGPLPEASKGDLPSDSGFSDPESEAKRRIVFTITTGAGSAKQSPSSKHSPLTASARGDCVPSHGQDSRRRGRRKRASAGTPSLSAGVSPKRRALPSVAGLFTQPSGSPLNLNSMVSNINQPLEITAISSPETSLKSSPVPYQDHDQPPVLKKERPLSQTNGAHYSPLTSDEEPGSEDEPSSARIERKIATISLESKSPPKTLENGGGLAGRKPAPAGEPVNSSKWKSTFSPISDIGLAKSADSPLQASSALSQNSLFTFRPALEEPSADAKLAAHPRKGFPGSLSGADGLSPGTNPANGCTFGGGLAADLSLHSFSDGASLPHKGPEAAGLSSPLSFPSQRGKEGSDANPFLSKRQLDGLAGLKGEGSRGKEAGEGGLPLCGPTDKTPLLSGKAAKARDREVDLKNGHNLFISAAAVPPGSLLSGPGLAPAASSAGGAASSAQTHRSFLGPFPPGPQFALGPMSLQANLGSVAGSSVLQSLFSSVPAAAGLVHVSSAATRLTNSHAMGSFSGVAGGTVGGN
T1 sequence (Q15910 whole entry, species assumed): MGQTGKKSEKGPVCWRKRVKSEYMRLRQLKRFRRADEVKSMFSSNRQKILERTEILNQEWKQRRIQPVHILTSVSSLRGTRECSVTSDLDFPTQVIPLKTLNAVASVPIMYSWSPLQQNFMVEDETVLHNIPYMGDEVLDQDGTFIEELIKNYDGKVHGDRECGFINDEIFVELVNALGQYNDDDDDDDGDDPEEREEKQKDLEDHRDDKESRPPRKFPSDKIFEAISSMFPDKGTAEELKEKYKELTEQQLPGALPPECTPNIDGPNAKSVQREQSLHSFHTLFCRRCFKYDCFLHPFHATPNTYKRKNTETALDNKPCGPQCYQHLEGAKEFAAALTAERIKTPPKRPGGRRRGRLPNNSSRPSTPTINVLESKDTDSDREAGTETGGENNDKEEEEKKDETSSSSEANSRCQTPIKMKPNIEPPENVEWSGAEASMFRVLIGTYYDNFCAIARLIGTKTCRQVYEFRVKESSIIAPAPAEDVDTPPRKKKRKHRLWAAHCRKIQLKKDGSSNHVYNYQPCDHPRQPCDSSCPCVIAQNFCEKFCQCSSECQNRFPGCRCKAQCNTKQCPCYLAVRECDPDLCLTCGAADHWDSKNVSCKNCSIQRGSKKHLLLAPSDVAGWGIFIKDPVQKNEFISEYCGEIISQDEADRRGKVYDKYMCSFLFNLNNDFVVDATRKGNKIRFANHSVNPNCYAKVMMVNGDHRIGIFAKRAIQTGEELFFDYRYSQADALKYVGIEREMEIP
T1 sequence (O75530 whole entry partner, species assumed): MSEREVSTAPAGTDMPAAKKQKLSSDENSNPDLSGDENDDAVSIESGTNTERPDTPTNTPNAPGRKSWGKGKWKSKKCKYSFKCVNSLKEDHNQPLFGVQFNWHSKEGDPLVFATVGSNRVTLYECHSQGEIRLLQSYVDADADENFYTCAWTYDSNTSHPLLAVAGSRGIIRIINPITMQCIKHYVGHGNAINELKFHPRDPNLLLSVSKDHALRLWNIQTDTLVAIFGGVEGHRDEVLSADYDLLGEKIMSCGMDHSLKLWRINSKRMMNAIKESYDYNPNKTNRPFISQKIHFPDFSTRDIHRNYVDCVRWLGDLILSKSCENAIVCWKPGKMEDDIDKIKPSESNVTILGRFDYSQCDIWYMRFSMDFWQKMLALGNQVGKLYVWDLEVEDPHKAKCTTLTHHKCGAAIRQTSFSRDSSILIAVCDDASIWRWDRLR
T1 sequence (Q15022 whole entry partner, species assumed): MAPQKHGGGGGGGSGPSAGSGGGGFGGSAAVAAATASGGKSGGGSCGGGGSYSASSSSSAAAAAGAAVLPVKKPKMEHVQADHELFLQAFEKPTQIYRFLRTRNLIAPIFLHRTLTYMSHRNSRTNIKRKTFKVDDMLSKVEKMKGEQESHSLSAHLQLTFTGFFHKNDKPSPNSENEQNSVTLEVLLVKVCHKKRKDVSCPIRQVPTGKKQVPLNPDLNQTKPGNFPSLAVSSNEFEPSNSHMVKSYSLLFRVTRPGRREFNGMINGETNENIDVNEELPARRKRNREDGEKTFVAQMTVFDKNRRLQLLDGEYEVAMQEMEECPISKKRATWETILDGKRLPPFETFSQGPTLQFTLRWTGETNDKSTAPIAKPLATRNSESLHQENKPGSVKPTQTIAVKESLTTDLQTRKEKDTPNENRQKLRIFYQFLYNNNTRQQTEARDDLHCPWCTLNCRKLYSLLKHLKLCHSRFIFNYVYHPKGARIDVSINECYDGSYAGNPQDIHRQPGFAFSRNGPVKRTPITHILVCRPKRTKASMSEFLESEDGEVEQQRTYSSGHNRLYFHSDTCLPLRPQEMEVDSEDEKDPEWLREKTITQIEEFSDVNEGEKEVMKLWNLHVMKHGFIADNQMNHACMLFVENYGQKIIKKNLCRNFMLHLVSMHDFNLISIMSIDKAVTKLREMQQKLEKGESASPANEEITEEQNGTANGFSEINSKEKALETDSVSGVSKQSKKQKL
Chain of EZH-1 (Q92800 whole entry, species assumed): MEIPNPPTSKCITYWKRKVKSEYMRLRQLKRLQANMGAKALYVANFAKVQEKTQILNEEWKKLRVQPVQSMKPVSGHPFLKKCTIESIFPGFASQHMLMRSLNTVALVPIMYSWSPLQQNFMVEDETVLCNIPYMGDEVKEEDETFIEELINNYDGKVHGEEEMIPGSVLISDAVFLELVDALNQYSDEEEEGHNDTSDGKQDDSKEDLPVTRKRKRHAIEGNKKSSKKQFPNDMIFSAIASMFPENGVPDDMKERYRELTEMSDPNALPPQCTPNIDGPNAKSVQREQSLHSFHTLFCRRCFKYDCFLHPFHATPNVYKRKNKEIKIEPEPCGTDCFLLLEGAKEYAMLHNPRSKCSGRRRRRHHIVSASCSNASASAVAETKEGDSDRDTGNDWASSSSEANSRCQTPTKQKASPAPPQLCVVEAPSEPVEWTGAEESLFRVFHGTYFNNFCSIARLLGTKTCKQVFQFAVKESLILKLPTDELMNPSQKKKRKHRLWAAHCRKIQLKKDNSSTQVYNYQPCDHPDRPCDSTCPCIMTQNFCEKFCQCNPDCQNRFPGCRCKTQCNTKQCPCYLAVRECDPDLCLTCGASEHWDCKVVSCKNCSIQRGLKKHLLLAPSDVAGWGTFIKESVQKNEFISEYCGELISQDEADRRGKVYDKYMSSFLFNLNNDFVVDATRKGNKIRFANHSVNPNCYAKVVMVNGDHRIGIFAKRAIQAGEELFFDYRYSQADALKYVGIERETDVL
Chain of EZH-1 (O75530 whole entry partner, species assumed): as the sequence (O75530 whole entry partner, species assumed) above
Chain of EZH-1 (Q15022 whole entry partner, species assumed): as the sequence (Q15022 whole entry partner, species assumed) above
Chain of GSK-3 alpha (P49840 whole entry): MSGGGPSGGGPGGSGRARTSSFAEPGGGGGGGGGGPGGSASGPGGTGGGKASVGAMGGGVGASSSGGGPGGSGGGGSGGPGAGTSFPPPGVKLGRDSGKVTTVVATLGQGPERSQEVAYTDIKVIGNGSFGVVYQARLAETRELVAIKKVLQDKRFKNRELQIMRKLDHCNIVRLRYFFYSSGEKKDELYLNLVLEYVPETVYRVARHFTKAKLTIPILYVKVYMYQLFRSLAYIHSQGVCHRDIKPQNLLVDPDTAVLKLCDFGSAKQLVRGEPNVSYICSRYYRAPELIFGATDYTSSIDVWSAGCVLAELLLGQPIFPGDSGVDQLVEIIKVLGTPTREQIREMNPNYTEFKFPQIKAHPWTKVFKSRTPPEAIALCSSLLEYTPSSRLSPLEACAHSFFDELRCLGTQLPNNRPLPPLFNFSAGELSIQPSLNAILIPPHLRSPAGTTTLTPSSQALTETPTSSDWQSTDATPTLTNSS

Molecule: Cc1ccc(C(=O)Nc2c[nH]nc2C(=O)NCCCOC(C)C)cn1 [GSK XXII]
- Lgr5+ Assay ([1]; Table 14): 0.2 to 1 µM
- Perilymph Conc [2, 19]: 0.2 to 1 µM
- GSK-3 alpha [3]: 2.3 nM

Molecule: O=C(O)CCCc1ccccc1 [Na phenylbutyrate]
- HDAC Potenc [4]: 9 to 16 µM
- Lgr5+ Assay [1, 20]: ≤ 4000 µM
- Perilymph Conc [2, 21]: ≤ 4000 µM

Molecule: N#Cc1c2c(c3nncn3c1NCc1ccco1)CN(Cc1ccccc1)CC2 [EED162]
- IC50 [5]: 30 nM
- Lit Cell Poten [6]: 80 nM

Molecule: CCCc1cc(C)[nH]c(=O)c1CNC(=O)c1cc(-c2ccc(N3CCN(C(C)C)CC3)nc2)cc2c1cnn2C(C)C [UNCI 999]
- Lgr5+ Assay ([1]; Table 19, result in words): Activity
- IC50 [5]: 10 nM
- Lit Cell Poten [6]: 124 nM

Molecule: COC(=O)c1cc(CN2CCN(C(=N)N)CC2)cc(C(=O)N2CCN(C(=O)c3ccc(C(=N)N)cc3)CC2)c1 [CBB-1007]
- Lgr5+ Assay ([1]; Table 18, result in words): Activity
- IC50 [7]: 2100 nM
- IC50 ([8]; read-out: Literat. Cell IC50): < 5000 nM

Molecule: Cc1ccc(-c2ncc(OC[C@@H]3CCNC3)cc2-c2ccc(C#N)cc2)cc1 [GSK-354]
- IC50 [9]: 19000 nM
- IC50 [7]: 29 to 80 nM
- Literat. Cell [8]: 1300 nM

Molecule: CCN(c1cc(C#CCN2CCOCC2)cc(C(=O)NCc2c(C)cc(C)[nH]c2=O)c1C)[C@H]1CC[C@H](N(C)CCOC)CC1 [EPZ-011989]
- Lit Cell Poten [6]: 94 nM

Molecule: C#CCC(CCCCCC)C(=O)O (stereo not drawn) [2-hexyl-4-pentynoic acid]
- HDAC Potenc [4]: 13 µM
- Lgr5+ Assay [1, 20]: ≤ 4000 µM
- Perilymph Conc [2, 21]: ≤ 4000 µM

Molecule: Cc1cc(C)c(CNC(=O)c2cc(-c3ccc(N4CCN(C)CC4)nc3)cc3c2cnn3C(C)C)c(=O)[nH]1 [GSK926]
- IC50 [5]: 7.9 nM
- Lit Cell Poten [6]: 324 nM

Molecule: C=CCNc1nc(N)c(C(=O)c2ccc(F)s2)s1 [TT10]
- Lit Cell [10]: 1 µM
- Lgr5+ Assay ([1]; Table 22): 1 to 10 µM
- Perilymph Conc [2, 22]: 1 to 10 µM

Molecule: Cn1cc(C(=O)Nc2ccc([C@@H]3C[C@H]3NCC3CC3)cc2)cn1 [Compound T-3775440]
- IC50 [9]: 17000 nM
- IC50 [11]: 110000 nM

Molecule: NNCCc1ccccc1 [Phenelzine sulfate]
- Literat. Cell [8]: 900 nM
- Cmax ([12]; human, plasma, Table 18, value in brackets, converted): 73 to 440 nM

Molecule: CC(C)N(CCCNC(=O)Nc1ccc(C(C)(C)C)cc1)C[C@H]1O[C@@H](n2ccc3c(N)ncnc32)[C@H](O)[C@@H]1O [EPZ004777]
- Lgr5+ Assay ([1]; Table 20): 0.6 to 45 µM
- Perilymph Conc [2, 23]: 0.6 to 45 µM
- Human In Vivo Conc ([12]; Table 20): 0.1 to 45 µM

Molecule: N[C@H]1CC[C@H](N[C@@H]2C[C@H]2c2ccccc2)CC1 (relative stereo) [ORY-1001]
- IC50 [11]: > 100000 nM
- Literat. Cell [8]: 0.5 to 3 nM

Molecule: CCCCc1nc2cc(-c3cccnc3)c(C)nc2n1Cc1ccc(-c2ccccc2-c2nn[nH]n2)cc1 [TM-25659]
- Lit Cell [10]: 10 to 100 µM
- Lgr5+ Assay ([1]; Table 22): 10 to 100 µM
- Perilymph Conc [2, 22]: 10 to 100 µM

Molecule: O=C(O)CCN(O)C(=O)CCCCCCCCC1CC1 [TC-E5002]
- Lit Cell [13]: 1640 µM
- Lgr5+ Assay ([1]; Table 21): 0.12 to 10 µM
- IC50 [14, 24]: 83000 nM
- IC50 ([14]; Table 21, KDM 5, read-out: Select KDM 5): 55000 nM
- IC50 ([14]; Table 21, KDM 6, read-out: Select KDM 6): > 100000 nM
- Perilymph Conc ([2]; Table 21): 0.12 to 10 µM
- Human In Vivo Conc ([15]; Table 21): 0.12 to 10 µM

Molecule: CC(C)N(C[C@H]1O[C@@H](n2cnc3c(N)ncnc32)[C@H](O)[C@@H]1O)[C@H]1C[C@@H](CCc2nc3cc(C(C)(C)C)ccc3[nH]2)C1 [Pinometostat (EPZ-5676)]
- Lit Cell [16]: 2.7 nM
- Perilymph Conc [2, 23]: 0.1 to 10 µM
- Human In Vivo Conc ([12]; Table 20): (1-10 uM

Molecule: C/C(=N\NC(=O)c1cccc(S(=O)(=O)N2CCOCC2)c1)c1cc(Cl)ccc1O [SP-2509]
- Lgr5+ Assay ([1]; Table 18, result in words): Activity
- IC50 [7]: 13 nM
- Literat. Cell [8]: 350 to 650 nM

Molecule: N#Cc1ccc2[nH]c(O)c(-c3ccc(CN4CCOCC4)cn3)c2c1 [AZD 1080]
- Perilymph Conc [2, 19]: 1 to 5 µM
- GSK-3 alpha [3]: 6.9 nM

Molecule: Nc1nccc2c1ncn2C1C=C(CO)C(O)C1O (stereo not drawn) [DZNep]
- Lgr5+ Assay ([1]; Table 19, result in words): Activity
- Lit Cell Poten [6]: 1000 nM

Molecule: COc1cc(C)[nH]c(=O)c1CN1CCc2c(Cl)cc([C@H](OC)C3COC3)c(Cl)c2C1=O [PF-06821497]
- Perilymph Conc ([2]; Table 19): 0.001 to 0.1 µM
- IC50 [5]: < 1 nM
- Human In Vivo Conc ([15]; Table 19): 0.005 to 0.05 µM
- IC50 [17]: 70 nM
- Lit Cell Poten [6]: 4 to 6 nM

Molecule: CPI-169
- Perilymph Conc ([2]; Table 19): 1 to 10 µM
- Human In Vivo Conc ([15]; Table 19): 1 to 10 µM
- IC50 [17]: 6 nM

Molecule: CC(C)N(CCCNC(=O)Nc1ccc(C(C)(C)C)cc1)C[C@H]1O[C@@H](n2cc(Br)c3c(N)ncnc32)[C@H](O)[C@@H]1O [SGC0946]
- Lit Cell [16]: 10 nM
- Perilymph Conc [2, 23]: 0.6 to 5 µM
- Human In Vivo Conc ([12]; Table 20): 0.1 to 5 µM

Molecule: CC(C)c1c(-c2ccccc2)[nH]c2c(C#N)cnn2c1=O [CPI-455]
- Lit Cell [13]: 0.09 µM
- IC50 [14, 24]: 41 nM

Molecule: O=C(O)CCNc1cc(N2CCc3ccccc3CC2)nc(-c2ccccn2)n1 [GSK-J1]
- Lit Cell [13]: 50 µM

Molecule: CNc1ccnc(Nc2ccc3cc(C)n(-c4ccccc4Oc4cnc5c(c4)ncn5C)c3c2)n1 [Compound 13]
- IC50 [18]: 0.4 nM

Molecule: CCN(c1cc(-c2ccc(CN3CCOCC3)cc2)cc(C(=O)NCc2c(C)cc(C)[nH]c2=O)c1C)C1CCOCC1 [Tazemetostat]
- Perilymph Conc ([2]; Table 19): 0.37 to 1.1 µM
- Human In Vivo Conc ([15]; Table 19): 100 to 800 ng/mL
- Human In Vivo Conc ([12]; Table 19, value in brackets, converted): (200-1600 nM)

Molecule: CCCc1cc(C)[nH]c(=O)c1CNC(=O)c1cc(-c2ccnc(N3CCN(C)CC3)c2)cc2c1cnn2C(C)C [GSK343]
- Lit Cell Poten [6]: 174 nM

Molecule: Cc1ncccc1-c1c(Cl)sc2ccc(NC(=O)NCC(=O)NCCCN(C)[C@@H]3CCCN(c4ncnc5[nH]ccc45)C3)cc12 [Compound 7]
- IC50 [18]: < 1 nM
